From patent publication US7671054B1, “Reverse-turn mimetics and method relating thereto” (Choongwae Pharma Corporation, priority 2001, dated 2010)
Like-named read-outs stand apart in the source and are kept apart here.

What was measured:
[1] = test system: HCT116 cells; assay: Growth inhibition assay (MTS); assay type: cell-based; conditions: Homo sapiens, read-out: Growth Inhibition (GI50, uM) HCT116
How it was run: (§1)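 Cells seeded at 10^4 per well, grown 24 h at 37° C, then exposed to compound at various concentrations for 48 hours. MTS added for 2 h; absorbance at 490 nm gave viability, with cytotoxicity calculated per concentration against pre-treatment reading.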

[2] = test system: SW480 cells; assay: Growth inhibition assay (MTS); assay type: cell-based; conditions: Homo sapiens, read-out: Growth Inhibition (GI50, uM) SW480
How it was run: as §1

[3] = HCT-116, 48 h, Table 5, HCT116 cells, 48 hours treatment, MTS
[4] = SW480, 48 h, Table 5, SW480 cells, 48 hours treatment, MTS

Row | SMILES | GI50 [1, 3] [µM] | GI50 [2, 4] [µM] | other results
1 | C=CCOC(=O)NCCCC[C@H]1C(=O)N(Cc2ccc(Cl)c(Cl)c2)C[C@H]2N1C(=O)CN(C)N2C(=O)NCc1ccccc1 [Compound 141] | 21 ± 2.6 | 35 ± 11 | –
2 | [2H]c1cc(O)cc([2H])c1C[C@H]1C(=O)N(Cc2cccc3ccccc23)C[C@H]2N1C(=O)CN(C)N2C(=O)NCc1ccccc1 [Compound 142] | 3.3 ± 0.4 | 3.2 ± 0.3 | –
3 | C=CCN1CC(=O)N2[C@@H](Cc3ccc(OC(=O)NCCN(C)C)cc3)C(=O)N(Cc3ccc(F)cc3F)C[C@@H]2N1C(=O)NCc1ccccc1 [Compound 143] | – | – | GI50 ([1]; HCT-116, 48 h): 1.2 ± 0.1 µM; GI50 ([2]; SW480, 48 h): 1.2 ± 0.1 µM
4 | C=CCN1CC(=O)N2[C@@H](Cc3ccc(OP(=O)(O)O)cc3)C(=O)N(Cc3ccccc3)C[C@@H]2N1C(=O)NCc1ccccc1 [Compound 144] | – | – | GI50 ([1]; HCT-116, Table 5, HCT116 cells, 48 hours treatment, MTS): 0.6 ± 0.1 µM; GI50 ([2]; Table 5, SW480 cells, 48 hours treatment, MTS): 0.5 ± 0.03 µM
5 | C=CCN1CC(=O)N2[C@@H](Cc3ccc(O)cc3)C(=O)N(Cc3ccc(F)cc3F)C[C@@H]2N1C(=O)NCc1ccc(F)cc1 [Compound 145] | 5.9 ± 0.3 | 6.4 ± 0.1 | –
6 | CC(C)N1CC(=O)N2[C@@H](Cc3ccc(O)cc3)C(=O)N(Cc3ccc(F)cc3F)C[C@@H]2N1C(=O)NCc1ccccc1 [Compound 146] | 4 ± 0.5 | 3.7 ± 0.5 | –
7 | C=CCN1CC(=O)N2[C@@H](Cc3ccc(O)cc3)C(=O)N(Cc3ccc(F)c(F)c3)C[C@@H]2N1C(=O)NCc1ccccc1 [Compound 148] | 1 ± 0.3 | 1.3 ± 0.1 | –
8 | C=CCN1CC(=O)N2[C@@H](Cc3ccc(O)cc3)C(=O)N(Cc3ccc(F)cc3F)C[C@@H]2N1C(=O)NCc1ccc(Cl)c(Cl)c1 [Compound 149] | 2.3 ± 0.4 | 2.3 ± 0.1 | –
9 | C=CCN1CC(=O)N2[C@@H](Cc3ccc(O)cc3)C(=O)N(Cc3ccc(Cl)c(Cl)c3)C[C@@H]2N1C(=O)NCc1ccccc1 [Compound 150] | 1.4 ± 0.2 | 1.3 ± 0.1 | –
10 | C=CCN1CC(=O)N2[C@@H](CC3(O)C=CC(=O)C=C3)C(=O)N(Cc3ccc(F)cc3F)C[C@@H]2N1C(=O)NCc1ccccc1 [Compound 151] | 8.6 ± 0.9 | 11.2 ± 1.3 | –
11 | C=CCN1CC(=O)N2[C@@H](Cc3ccc(O)cc3)C(=O)N(Cc3cccc4scnc34)C[C@@H]2N1C(=O)NCc1ccccc1 [Compound 152] | 0.6 ± 0.1 | 0.7 ± 0.1 | –
12 | C=CCN1CC(=O)N2[C@@H](Cc3ccc(O)cc3)C(=O)N([C@H](C)c3ccccc3)C[C@@H]2N1C(=O)NCc1ccccc1 [Compound 153] | 14.3 ± 7 | 12.8 ± 1.6 | –
13 | C=CCN1CC(=O)N2[C@@H](CN([C@H](C)c3ccccc3)C(=O)[C@@H]2Cc2ccc(O)cc2)N1C(=O)NCc1ccccc1 [Compound 154] | 0.7 ± 0.2 | 0.7 ± 0.2 | –
14 | C=CCN1CC(=O)N2[C@@H](Cc3ccc(O)cc3)C(=O)N([C@@H](C)c3ccc(Cl)c4cccnc34)C[C@@H]2N1C(=O)NCc1ccccc1 [Compound 155] | 23.3 ± 1.2 | 26.3 ± 2.5 | –
15 | C=CCN1CC(=O)N2[C@@H](Cc3ccc(O)c(F)c3)C(=O)N(Cc3ccc(F)cc3)C[C@@H]2N1C(=O)NCc1ccccc1 [Compound 156] | 3.8 ± 0.2 | 3.7 ± 0.3 | –
16 | C=CCN1CC(=O)N2[C@@H](Cc3ccc(O)cc3)C(=O)N(Cc3ccc4c(c3)OCCO4)C[C@@H]2N1C(=O)NCc1ccccc1 [Compound 157] | 1.2 ± 0.1 | 1 ± 0.2 | –
17 | C=CCN1CC(=O)N2[C@@H](CN([C@H](C)c3ccc(Cl)c4cccnc34)C(=O)[C@@H]2Cc2ccc(O)cc2)N1C(=O)NCc1ccccc1 [Compound 159] | 8.2 ± 0.4 | 9.1 ± 0.5 | –
18 | C=CCN1CC(=O)N2[C@@H](Cc3ccc(O)cc3)C(=O)N([C@@H](C)c3cccc4cccnc34)C[C@@H]2N1C(=O)NCc1ccccc1 [Compound 160] | 10.1 ± 1.3 | 13.7 ± 0.5 | –
19 | C=CCN1CC(=O)N2[C@@H](CN([C@H](C)c3cccc4cccnc34)C(=O)[C@@H]2Cc2ccc(O)cc2)N1C(=O)NCc1ccccc1 [Compound 161] | 4.1 ± 0.5 | 4.2 ± 0.4 | –
20 | C=CCN1CC(=O)N2[C@@H](Cc3ccc(O)cc3)C(=O)N(Cc3cccc(N(C)C)c3)C[C@@H]2N1C(=O)NCc1ccccc1 [Compound 162] | 1.3 ± 0.7 | 1 ± 0.3 | –
21 | C=CCN1CC(=O)N2[C@@H](Cc3ccc(O)cc3)C(=O)N(Cc3cccc(NC)c3)C[C@@H]2N1C(=O)NCc1ccccc1 [Compound 163] | 2.3 ± 0.4 | 2.4 ± 0.2 | –
22 | C=CCN1CC(=O)N2[C@@H](Cc3ccc(O)cc3)C(=O)N(Cc3cccc(N(C)C(=O)CCCCC)c3)C[C@@H]2N1C(=O)NCc1ccccc1 [Compound 164] | 2.9 ± 0.4 | 3 ± 0.3 | –
23 | C[C@H](c1ccc(F)cc1F)N1C[C@H]2N(C(=O)CN(C)N2C(=O)NCc2ccccc2)[C@@H](Cc2ccc(O)cc2)C1=O [Compound 165] | 24.4 ± 1.9 | 22.8 ± 0.9 | –
